Assays:
ABUTH (Velvetleaf) [1] = assay: Postemergence herbicidal evaluation; type: in vivo, Abutilon theophrasti; conditions: postemergence
Outline: (§1)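 Scores (0–9) reflect plant stand, vigor, malformation, size, chlorosis and general appearance relative to control, read 4 to 5 weeks after treatment and averaged where tests were repeated. Application: about 0.0156–0.500 kg/ha sprayed at 40 psi onto two-week seedlings.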

CASOB (Sicklepod) = assay: Postemergence herbicidal evaluation; type: in vivo, Cassia obtusifolia; conditions: postemergence
Outline: as §1

GALAP (Galium) [2] = assay: Postemergence herbicidal evaluation; type: in vivo, Galium aparine; conditions: postemergence
Outline: as §1

SETVI (Foxtail, Green) = assay: Postemergence herbicidal evaluation; type: in vivo, Setaria viridis; conditions: postemergence
Outline: as §1

ABUTH (Velvetleaf) [3] = assay: Preemergence herbicidal evaluation; type: in vivo, Abutilon theophrasti; conditions: rated 4-5 weeks after treatment
Outline: (§2)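 Seeds were mixed with potting soil and planted on about one inch of soil, then sprayed with test compound in aqueous acetone at about 0.0156 to 0.500 kg per hectare. Plants grew under standard greenhouse care and were visually rated 0-9 against untreated controls 4-5 weeks post-treatment.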

AMBEL (Ragweed, Common) = assay: Preemergence herbicidal evaluation; type: in vivo, Ambrosia artemisifolia; conditions: rated 4-5 weeks after treatment
Outline: as §2

GALAP (Galium) [4] = assay: Preemergence herbicidal evaluation; type: in vivo, Galium aparine; conditions: rated 4-5 weeks after treatment
Outline: as §2

ECHCG (Barnyardgrass) = assay: Preemergence herbicidal evaluation; type: in vivo, Echinochloa crus-galli; conditions: rated 4-5 weeks after treatment
Outline: as §2

[5] = test system: GLXMAW (Soybean, Williams); assay: Preemergence herbicidal evaluation; type: in vivo, Glycine max, (L.) Merr. cv Williams; conditions: rated 4-5 weeks after treatment
Outline: as §2

[6] = test system: TRZAWR (Wheat, Winter, cv Riband); assay: Preemergence herbicidal evaluation; type: in vivo, Triticum aestivum; conditions: rated 4-5 weeks after treatment
Outline: as §2

CYPIR (Rice Flatsedge) = assay: Preemergence weed control under flooded paddy conditions; type: in vivo, Cyperus iria; conditions: rated 3-4 weeks after treatment
Outline: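 Flooded-pot preemergence screen with silt loam and seeds in the upper 0.5 cm. Dose about 0.0313 to 0.500 kg/ha, delivered into flood water; visual 0-9 score after 3 to 4 weeks.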

[7] = test system: SAGPY (Arrowhead (Pygmaea)); assay: as above; type: in vivo, Sagittaria pygmaea; conditions: rated 3-4 weeks after treatment
Outline: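 Using flooded silt loam (water 1.5 to 3 cm deep), seeds sown in the top 0.5 cm were exposed preemergence to compound pipetted into the flood at about 0.0313 to 0.500 kg/ha. Effects were scored 0-9 by eye three to four weeks later.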

In the case of `CCOC(=O)CN1C(=O)C(CC(=O)NS(=O)(=O)C(C)C)SC1=Nc1cc(-n2c(=O)cc(C(F)(F)F)n(C)c2=O)c(F)cc1Cl` (stereo not shown) [Compound 117, Ethyl 2-{{2-chloro-5-[3,6-dihydro-3-methyl-2,6-dioxo-4-(trifluoromethyl)-1(2H)-pyrimidinyl]-4-fluorophenyl}imino}-5-{[(isopropylsulfonyl)-carbamoyl]methyl}-4-oxo-3-thiazolidineacetate], the “herbicidal rating ABUTH” value (ABUTH (Velvetleaf) [1]; rate 0.0158 kg/ha) is reported as 9.0, the “herbicidal rating ABUTH” value (ABUTH (Velvetleaf) [1]; rate 0.0315 kg/ha) is reported as 9.0 and the “herbicidal rating ABUTH” value (ABUTH (Velvetleaf) [1]; rate 0.0630 kg/ha) is reported as 9.0. For the same molecule, the “herbicidal rating CASOB” value (CASOB (Sicklepod); rate 0.0158 kg/ha) was 0.0, the “herbicidal rating CASOB” value (CASOB (Sicklepod); rate 0.0315 kg/ha) was 1.0 and the “herbicidal rating CASOB” value (CASOB (Sicklepod); rate 0.0630 kg/ha) was 1.0. For the same molecule, the “herbicidal rating GALAP” value (GALAP (Galium) [2]; rate 0.0158 kg/ha) was 1.0, the “herbicidal rating GALAP” value (GALAP (Galium) [2]; rate 0.0315 kg/ha) was 1.0 and the “herbicidal rating GALAP” value (GALAP (Galium) [2]; rate 0.0630 kg/ha) was 1.0. The “herbicidal rating SETVI” value (SETVI (Foxtail, Green); rate 0.0158 kg/ha) was 1.0, the “herbicidal rating SETVI” value (SETVI (Foxtail, Green); rate 0.0315 kg/ha) was 2.0 and the “herbicidal rating SETVI” value (SETVI (Foxtail, Green); rate 0.0630 kg/ha) was 2.0. The “Preemergence herbicidal rating ABUTH” value (ABUTH (Velvetleaf) [3]; rate 0.0156 kg/ha) was 0.0, the “Preemergence herbicidal rating ABUTH” value (ABUTH (Velvetleaf) [3]; rate 0.0313 kg/ha) was 0.0 and the “Preemergence herbicidal rating ABUTH” value (ABUTH (Velvetleaf) [3]; rate 0.0625 kg/ha) was 0.0. The “Preemergence herbicidal rating ABUTH” value (ABUTH (Velvetleaf) [3]; rate 0.1250 kg/ha) was 1.0, the “Preemergence herbicidal rating ABUTH” value (ABUTH (Velvetleaf) [3]; rate 0.2500 kg/ha) was 9.0 and the “Preemergence herbicidal rating AMBEL” value (AMBEL (Ragweed, Common); rate 0.0156 kg/ha) was 0.0. The “Preemergence herbicidal rating AMBEL” value (AMBEL (Ragweed, Common); rate 0.0313 kg/ha) was 0.0, the “Preemergence herbicidal rating AMBEL” value (AMBEL (Ragweed, Common); rate 0.0625 kg/ha) was 0.0 and the “Preemergence herbicidal rating AMBEL” value (AMBEL (Ragweed, Common); rate 0.1250 kg/ha) was 0.0. The “Preemergence herbicidal rating AMBEL” value (AMBEL (Ragweed, Common); rate 0.2500 kg/ha) was 7.0, the “Preemergence herbicidal rating GALAP” value (GALAP (Galium) [4]; rate 0.0156 kg/ha) was 0.0 and the “Preemergence herbicidal rating GALAP” value (GALAP (Galium) [4]; rate 0.0313 kg/ha) was 0.0. The “Preemergence herbicidal rating GALAP” value (GALAP (Galium) [4]; rate 0.0625 kg/ha) was 0.0, the “Preemergence herbicidal rating GALAP” value (GALAP (Galium) [4]; rate 0.1250 kg/ha) was 3.0 and the “Preemergence herbicidal rating GALAP” value (GALAP (Galium) [4]; rate 0.2500 kg/ha) was 7.0. For the same molecule, the “Preemergence herbicidal rating ECHCG” value (ECHCG (Barnyardgrass); rate 0.0156 kg/ha) was 0.0, the “Preemergence herbicidal rating ECHCG” value (ECHCG (Barnyardgrass); rate 0.0313 kg/ha) was 0.0 and the “Preemergence herbicidal rating ECHCG” value (ECHCG (Barnyardgrass); rate 0.0625 kg/ha) was 0.0. The “Preemergence herbicidal rating ECHCG” value (ECHCG (Barnyardgrass); rate 0.1250 kg/ha) was 0.0, the “Preemergence herbicidal rating ECHCG” value (ECHCG (Barnyardgrass); rate 0.2500 kg/ha) was 0.0 and the “Preemergence herbicidal rating GLXMAW” value ([5]; rate 0.0156 kg/ha) was 0.0. For the same molecule, the “Preemergence herbicidal rating GLXMAW” value ([5]; rate 0.0313 kg/ha) was 0.0, the “Preemergence herbicidal rating GLXMAW” value ([5]; rate 0.0625 kg/ha) was 1.0 and the “Preemergence herbicidal rating GLXMAW” value ([5]; rate 0.1250 kg/ha) was 1.0. For the same molecule, the “Preemergence herbicidal rating GLXMAW” value ([5]; rate 0.2500 kg/ha) was 1.0, the “Preemergence herbicidal rating TRZAWR” value ([6]; rate 0.0156 kg/ha) was 0.0 and the “Preemergence herbicidal rating TRZAWR” value ([6]; rate 0.0313 kg/ha) was 0.0. The “Preemergence herbicidal rating TRZAWR” value ([6]; rate 0.0625 kg/ha) was 0.0, the “Preemergence herbicidal rating TRZAWR” value ([6]; rate 0.1250 kg/ha) was 0.0 and the “Preemergence herbicidal rating TRZAWR” value ([6]; rate 0.2500 kg/ha) was 0.0. The “herbicidal effect rating, CYPIR” value (CYPIR (Rice Flatsedge); 0.0313 kg/ha) was 0.0, the “herbicidal effect rating, CYPIR” value (CYPIR (Rice Flatsedge); 0.0625 kg/ha) was 2.0 and the “herbicidal effect rating, CYPIR” value (CYPIR (Rice Flatsedge); 0.1250 kg/ha) was 5.0. The “herbicidal effect rating, CYPIR” value (CYPIR (Rice Flatsedge); 0.2500 kg/ha) was 6.0, the “herbicidal effect rating, SAGPY” value ([7]; 0.0313 kg/ha) was 0.0 and the “herbicidal effect rating, SAGPY” value ([7]; 0.0625 kg/ha) was 0.0. For the same molecule, the “herbicidal effect rating, SAGPY” value ([7]; 0.1250 kg/ha) was 0.0 and the “herbicidal effect rating, SAGPY” value ([7]; 0.2500 kg/ha) was 0.0.
In the case of `C=CCN1C(=O)C(CC(=O)NS(=O)(=O)C(C)C)SC1=Nc1cc(-n2c(=O)cc(C(F)(F)F)n(C)c2=O)c(F)cc1Cl` (stereo not shown) [Compound 118, 3-Allyl-2-{{2-chloro-5-[3,6-dihydro-3-methyl-2,6-dioxo-4-(trifluoromethyl)-1(2H)-pyrimidinyl]-4-fluorophenyl}imino}-N-(isopropylsulfonyl)-4-oxo-5-thiazolidineacetamide], the “herbicidal rating ABUTH” value (ABUTH (Velvetleaf) [1]; rate 0.0158 kg/ha) is reported as 0.0, the “herbicidal rating ABUTH” value (ABUTH (Velvetleaf) [1]; rate 0.0315 kg/ha) is reported as 4.0 and the “herbicidal rating ABUTH” value (ABUTH (Velvetleaf) [1]; rate 0.0630 kg/ha) is reported as 9.0. The “herbicidal rating CASOB” value (CASOB (Sicklepod); rate 0.0158 kg/ha) was 0.0, the “herbicidal rating CASOB” value (CASOB (Sicklepod); rate 0.0315 kg/ha) was 0.0 and the “herbicidal rating CASOB” value (CASOB (Sicklepod); rate 0.0630 kg/ha) was 0.0. The “herbicidal rating GALAP” value (GALAP (Galium) [2]; rate 0.0158 kg/ha) was 0.0, the “herbicidal rating GALAP” value (GALAP (Galium) [2]; rate 0.0315 kg/ha) was 0.0 and the “herbicidal rating GALAP” value (GALAP (Galium) [2]; rate 0.0630 kg/ha) was 1.0. For the same molecule, the “herbicidal rating SETVI” value (SETVI (Foxtail, Green); rate 0.0158 kg/ha) was 0.0, the “herbicidal rating SETVI” value (SETVI (Foxtail, Green); rate 0.0315 kg/ha) was 0.0 and the “herbicidal rating SETVI” value (SETVI (Foxtail, Green); rate 0.0630 kg/ha) was 4.0. For the same molecule, the “Preemergence herbicidal rating ABUTH” value (ABUTH (Velvetleaf) [3]; rate 0.0625 kg/ha) was 9.0, the “Preemergence herbicidal rating ABUTH” value (ABUTH (Velvetleaf) [3]; rate 0.1250 kg/ha) was 9.0 and the “Preemergence herbicidal rating ABUTH” value (ABUTH (Velvetleaf) [3]; rate 0.2500 kg/ha) was 7.0. For the same molecule, the “Preemergence herbicidal rating AMBEL” value (AMBEL (Ragweed, Common); rate 0.0625 kg/ha) was 0.0, the “Preemergence herbicidal rating AMBEL” value (AMBEL (Ragweed, Common); rate 0.1250 kg/ha) was 0.0 and the “Preemergence herbicidal rating AMBEL” value (AMBEL (Ragweed, Common); rate 0.2500 kg/ha) was 6.0. The “Preemergence herbicidal rating GALAP” value (GALAP (Galium) [4]; rate 0.0625 kg/ha) was 1.0, the “Preemergence herbicidal rating GALAP” value (GALAP (Galium) [4]; rate 0.1250 kg/ha) was 6.0 and the “Preemergence herbicidal rating GALAP” value (GALAP (Galium) [4]; rate 0.2500 kg/ha) was 7.0. For the same molecule, the “Preemergence herbicidal rating ECHCG” value (ECHCG (Barnyardgrass); rate 0.0625 kg/ha) was 0.0, the “Preemergence herbicidal rating ECHCG” value (ECHCG (Barnyardgrass); rate 0.1250 kg/ha) was 0.0 and the “Preemergence herbicidal rating ECHCG” value (ECHCG (Barnyardgrass); rate 0.2500 kg/ha) was 0.0. For the same molecule, the “Preemergence herbicidal rating GLXMAW” value ([5]; rate 0.0625 kg/ha) was 1.0, the “Preemergence herbicidal rating GLXMAW” value ([5]; rate 0.1250 kg/ha) was 0.0 and the “Preemergence herbicidal rating GLXMAW” value ([5]; rate 0.2500 kg/ha) was 3.0. The “Preemergence herbicidal rating TRZAWR” value ([6]; rate 0.0625 kg/ha) was 0.0, the “Preemergence herbicidal rating TRZAWR” value ([6]; rate 0.1250 kg/ha) was 0.0 and the “Preemergence herbicidal rating TRZAWR” value ([6]; rate 0.2500 kg/ha) was 0.0. For the same molecule, the “herbicidal effect rating, CYPIR” value (CYPIR (Rice Flatsedge); 0.0313 kg/ha) was 0.0, the “herbicidal effect rating, CYPIR” value (CYPIR (Rice Flatsedge); 0.0625 kg/ha) was 0.0 and the “herbicidal effect rating, CYPIR” value (CYPIR (Rice Flatsedge); 0.1250 kg/ha) was 0.0. For the same molecule, the “herbicidal effect rating, CYPIR” value (CYPIR (Rice Flatsedge); 0.2500 kg/ha) was 0.0, the “herbicidal effect rating, SAGPY” value ([7]; 0.0313 kg/ha) was 0.0 and the “herbicidal effect rating, SAGPY” value ([7]; 0.0625 kg/ha) was 0.0. The “herbicidal effect rating, SAGPY” value ([7]; 0.1250 kg/ha) was 3.0 and the “herbicidal effect rating, SAGPY” value ([7]; 0.2500 kg/ha) was 3.0.

— patent publication US20020137929A1, “1 - (3-heterocyclylphenyl) isothiourea, -isourea, -guanidine and -amidine herbicidal agents” (Intellectual Property Department, BASF Aktiengesellschaft, priority 1998, published 2002)
